Laboratory results as given in US20230372301A1, “TREATMENTS WITH NIROGACESTAT” (SpringWorks Therapeutics, Inc., priority 2022, published 2023).

How the values were obtained:
[1] = tested on: progressing desmoid tumors/aggressive fibromatosis (DT/AF); assay type: in vivo
Excerpt: A Phase 3, double-blind, placebo-controlled study is being conducted to determine the efficacy and safety of nirogacestat dihydrobromide in participants with progressing desmoid tumors. A Phase 1 solid tumor study provided preliminary efficacy (Messersmith, W., et al., “A Phase I, dose-finding study in patients with advanced solid malignancies of the oral y-secretase inhibitor PF-03084014,” Clin. Cancer Res., 21:60-7 (2015)), including long-term durable responses and safety of nirogacestat in desmoid participants (Villalobos, V. M., et al., “Long-Term Follow-Up of Desmoid Fibromatosis Treated with PF-03084014, an Oral Gamma Secretase Inhibitor, Ann. Surg. Oncol., 25:768-75 (2018)). These encouraging results lead to a Phase 2 study in participants with progressing desmoid tumors (Kummar, S., et al., “Clinical Activity of the γ-Secretase Inhibitor PF-03084014 in Adults with Desmoid Tumors (Aggressive Fibromatosis), J. Clin. Oncol., 35:1561-69 (2017)). […] Importantly, participants in the responder group had failed previous systemic therapies (imatinib or sorafenib) indicating a need for alterative therapeutic options for this patient population.
Overall Design: The Phase 3 study will be a multi-center, randomized, double-blind, placebo-controlled, event-driven to compare the efficacy, safety, and tolerability of nirogacestat and placebo in adult participants with progressing DT/AF. This study will consist of 2 phases, a double-blind and an optional open-label extension (OLE) phase.
Following disease progression (confirmed by central review using RECIST v1.1), or completion of the double-blind phase (once the required number of events have been observed and the primary PFS analysis has been completed), participants' treatment assignment will be unblinded, and if eligible, participants will have the option to enroll in the optional OLE phase.
Type of Participant and Disease Characteristics: • 1. Participant has DT/AF that has progressed by ≥20% as measured by RECIST v1.1 within the 12-month period prior to first dose of study treatment. • 2. Participant has: • a. Newly diagnosed, measurable progressing DT/AF that is not amenable to surgical resection or radiation therapy; • OR • b. Recurrent, progressing DT/AF following CR to initial therapy; • OR • c. Preexisting DT/AF and has previously received therapy and the residual tumor has progressed. • 3. Participant agrees to provide archival or new tumor tissue for confirmation of disease. • 4. If participant was previously treated with an investigational therapy for treatment of DT/AF, participant must have completed prior therapy at least 28 days prior to signing informed consent. All toxicities from prior therapy must resolve to Grade 1 or baseline. • 5. Participants who are receiving nonsteroidal anti-inflammatory drugs (NSAIDs) as treatment for conditions other than DT/AF must be receiving them prior to the observed progression (inclusion criteria 1) for: • a. Chronic scheduled daily use (defined as stable for 28 days prior to signing informed consent); or • b. Occasional use (defined as ≤3 days per week) for the treatment of pain or as an anti-inflammatory in licensed conditions such as headache, arthritis, etc. • c. Participant has an Eastern Cooperative Oncology Group (ECOG) performance status ≤2 at screening. • 6. Participant has adequate organ and bone marrow function as defined by the following Screening laboratory values: • a. Absolute neutrophil count ≥1500/μL; • b. Platelets ≥100×10^3/μL; • c. Hemoglobin ≥9 g/dL; • d. Total bilirubin ≤1.5×upper limit of normal (ULN) (isolated bilirubin >1.5×ULN is acceptable if bilirubin is fractionated and direct bilirubin <35%); • e. Aspartate aminotransferase (AST) (serum glutamic oxaloacetic transaminase)/alanine aminotransferase (ALT) (serum glutamic pyruvate transaminase)≤2×ULN; and • f. […] Participant can swallow tablets and has no gastrointestinal conditions affecting absorption. […]

[2] = tested on: progressing desmoid tumors; conditions: Phase 2, participants with progressing desmoid tumors; cited from earlier work
[3] = 150 mg twice daily, positive change indicates improvement
[4] = change from Baseline in EORTC, P: <0.001

CCC[C@H](N[C@H]1CCc2cc(F)cc(F)c2C1)C(=O)Nc1cn(C(C)(C)CNCC(C)(C)C)cn1 (single isomer, unassigned) [nirogacestat]
mean change from Baseline in EORTC, Global health status/Quality of life (GHS/QoL) [1, 3]: 4.493
mean change from Baseline in EORTC, QLQ30 Role Functioning [1, 3]: 11.133
mean change from Baseline in EORTC, QLQC30 Physical Functioning [1, 3]: 8.523
LS mean difference (between nirogacestat and placebo), Global health status/Quality of life (GHS/QoL) ([1]; change from Baseline in EORTC, P: 0.007): 10.515
LS mean difference (between nirogacestat and placebo), QLQ30 Role Functioning [1, 4]: 16.714
LS mean difference (between nirogacestat and placebo), QLQC30 Physical Functioning [1, 4]: 13.154
most frequent adverse reactions requiring a dose reduction or interruption ([1]; in vivo): diarrhea, rash maculo-papular, hypophosphatemia, stomatitis, folliculitis, and fatigue
progression-free survival (PFS), hazard ratio (HR) ([1]; nirogacestat 150 mg twice daily over placebo, <0.001): 0.29
objective response rate (ORR) ([1]; nirogacestat 150 mg twice daily versus placebo, p<0.001): statistically significant improvements
four different quality of life (QoL) assessments and patient-reported outcomes (PROs) ([1]; nirogacestat 150 mg twice daily versus placebo, p<0.001 for each): statistically significant improvements
participants progressing while on therapy [2]: no participants progressing while on therapy
response rate [2]: 29%
tumor shrinkage as measured by magnetic resonance imaging (MRI) [2]: significant tumor shrinkage
